These results are taken from patent US20180237745A1, “METHOD FOR CONTROLLING DIFFERENTIATION OF STEM CELLS” (GUANGZHOU INSTITUTES OF BIOMEDICINE AND HEALTH, CHINESE …, priority 2015, published 2018).

Assay [1] has as its system human H1 ES cells. The procedure: Undifferentiated human H1 ES cells were maintained in monolayer culture on Matrigel (BD Biosciences, 354277) in mTeSR1 medium (Stemcell Technologies, 05850) at 37° C. with 5% CO2. Cells were manually passaged at 1:4 to 1:6 split ratios every 3 to 5 days. For hepatic differentiation, we established a serum-free protocol based on previously described protocols with minor modifications^8, 9. Briefly, H1 cells were cultured for 3 days in RPMI/B27 medium (Insulin minus, Gibco, A18956-01) supplemented with 100 ng/ml Activin A (Peprotech, A120-14E), followed by 4 days with 20 ng/ml BMP2 (Peprotech, 120-02) and 30 ng/ml FGF-4 (Peprotech, 100-31) in RPMI/B27 (complete with Insulin, Gibco, 17504-044) medium, then 6 days with 20 ng/ml HGF (Peprotech, 100-39) and KGF (Peprotech, 100-19) in RPMI/B27 (complete with Insulin), then 8 days with 20 ng/ml Oncostatin-M (R&D Systems, 295-OM/CF) in Hepatocyte Culture Media (Lonza, cc-3198) supplemented with SingleQuots (without EGF). Immunofluorescence staining.
Single cell qPCR was performed using a Fluidigm C1 and BioMark HD as described by the manufacturer. Briefly, a cell suspension of a concentration of 166˜250 K/mL was loaded into a 10-17 μm C1™ Single-Cell Auto Prep IFC chamber (Fluidigm, PN100-5479), and cell capture was performed on the Fluidigm C1™ System. Both the empty wells and doublet-occupied wells were excluded from further analysis. Upon capture, reverse transcription and cDNA pre-amplification were performed using the Ambion Single Cell-to-CT Kit (Life Technologies, PN 4458237) and C1™ Single-Cell Auto Prep Module 2 Kit (Fluidigm, PN100-5519). The pre-amplified products were diluted 10-fold prior to analysis with TaqMan® Gene Expression Master Mix (Life Technologies, 4369016) and inventoried TaqMan® Gene Expression assays (20×, Applied Biosystems) in 96.96 dynamic Arrays™ on a BioMark System (Fluidigm). Inventoried TaqMan primers were used for single-cell qPCR. Relative expression was calculated as described in Buganim et al., 2012^22 except that a Ct value of 25 was used for low expressed genes. Relational network plots (mdsquish) were implemented as part of glbase^21 and will be described in detail elsewhere. Briefly, the normalized Euclidean distance between all cells was measured for singular value decomposed principal components 2, 3, 4 and 5. A network was then constructed using a threshold of 0.92 for weak links (dotted lines) and 0.99 for strong links (solid lines) with a maximum of the 50 best scoring edges per node, the network was then laid out using graphviz ‘neato’ layout. Node sizes are 2^[relative expression].
Culturing condition during differentiation is as follows. Nearly 50% confluent undifferentiated human H1 ES cells obtained from ATCC were passaged by Accutase 24 hr after seeding, cells were almost 90% confluent at 37° C. with 5% CO2. Then H1 cells were cultured for 3 days in RPMI/B27 medium (Insulin minus) supplemented with 100 ng/ml Activin A in the presence of 2 μM Repsox or not.
TGFβ-signaling inhibitor RepSox was added with a final concentration of 2 μM at day 0 from the start of differentiation of hESCs.
Expression of various markers of definite layer type cells, i.e., SOX1/PAX6 (ectoderm markers), GATA2/BMP4 (mesoderm markers), and SOX17/FOXA2 (endoderm markers) were tested during differentiation to evaluate the differentiated cells.

Assay [2] deals with H1-derived cells. To be noted: day 3 cells induced by Activin A in the presence of RepSox, compared to DE cells. The source says:
Scratch assay was used to determine the migration activity of H1-derived cells. Briefly, cells in a confluent monolayer were scratched with a needle to form a cell-free zone into which cells at the edges of the wound can migrate. The denuded area was imaged to measure the boundary of the wound at pre-migration. Images of cell movement were captured at regular intervals within a 24-48 hr period for data analysis.

Assay [3] deals with human H1 ES cells. Kind of assay: Bulk real-time qRT-PCR of marker genes in Activin A induced hESCs. The assay is classed as cell-based. On the procedure:
Immunofluorescence staining.
Total RNA was extracted using the Trizol reagent (MRC, TR1187) and 2 μg of total RNA was reverse-transcribed using the ReverTraAce Kit (TOYOBO, 34520B1). The product (cDNA) was properly diluted and used as PCR template. PCR reactions were performed with the SYBR®Premix Ex Taq™ Kit (TAKARA, RR420A) on the CFX96 Touch™ Real-Time PCR Detection System (Bio-Rad). GAPDH was used as the internal control. Three to four biological replicates were performed for each assay and data represents mean±SD.
Culturing condition during differentiation is as follows.

Assay [4] has as its system TGFβ. Kind of assay: ELISA of TGFβ protein in Activin A stimulated H1 cell culture media. In kind it is cell-based, human. The conditions noted are these: day 3 cells, Activin A (FIG. 4A). On the procedure:
The protein level of TGFβ in the Activin A stimulated H1 cell culture media was determined with an ELISA Kit (R&D Systems, DB100B) as described by the manufacturer.
For orientation: An ELISA detects its analyte on a solid surface through an enzyme-linked reagent.

Regarding `Cc1cccc(-c2[nH]ncc2-c2ccc3ncccc3n2)n1` [RepSox], in assay [1] (Example 1: 100 ng/ml Activin A, 2 μM RepSox, 3 days (FIG. 4B-E)), the endoderm marker expression result was “no endoderm marker is expressed”. For the same molecule, the “ectodermal markers SOX1 and PAX6” value in assay [1] (RepSox treated cells, day 3 (FIG. 4C)) is “slightly induced”. The “EMT and formation of DE” value in assay [1] (day 3, Activin A treated hESCs, RepSox added, single cell-qPCR (FIG. 4C)) is listed as “not only blocked the EMT but also the formation of DE”. For the same molecule, the “expression of POU5F1 and NANOG” value in assay [1] (day 3 Activin A cells treated with RepSox (FIG. 4C)) is “continued to express POU5F1 and NANOG”. Besides, the “expression of CDH1 and SOX2” value in assay [1] (day 3 Activin A cells treated with RepSox, compared with hESCs (FIG. 4C)) was “maintained the expression of CDH1 and SOX2 at the same level as hESCs”. In addition, the “induction of SOX17 expression” value in assay [1] (day 3 Activin A-treated cells (FIG. 4C)) is “blocked its induction completely”. Also, in assay [2], the “migration ability of day 3 cells” value is “less motile”. In assay [3] (qRT-PCR (FIG. 4D)), the “expression of CDH1” value is given as “maintaining the expression of CDH1”; the “expression of CDH2, SNAI1, SNAI2, ZEB1, KLF8 and VIM” value is listed as “blocked the expression”; the “expression of mesendoderm/endoderm markers GSC, EOMES, MIXL1, SOX17, FOXA2, GATA4, GATA6, HHEX and LGR5” value was “blocked the expression of mesendoderm/endoderm markers”; the “other lineage markers PAX6, GATA2, BMP4 and GATA3” value is on record as “mildly up-regulated”.

B1: Activin A (protein, UniProt P08476 311-426, looked up)
Inhibin beta A chain: GLECDGKVNICCKKQFFVSFKDIGWNDWIIAPSGYHANYCEGECPSHIAGTSGSSLSFHSTVINHYRMRGHSPFANLKSCCVPTKLRPMSMLYYDDGQNIIKKDIQNMIVEECGCS
modifications: Inhibin beta A chain
notes: growth factor (Peprotech) used to induce definitive endoderm differentiation of hESCs
As to B1, the TGFB1 gene expression entry in assay [3] (qRT-PCR, day 3 (FIG. 6)) is “robust activation”. In addition, in assay [4], the “TGFβ protein in the culture media” value came out at 1.5 ng/mL.
